Assay [1] relates to M. abscessus clinical isolate MAB02. The experiment in a line: In vitro susceptibility testing (DST), CLSI broth microdilution. It is filed as cell-based, M. abscessus subsp. abscessus. Set-up: key to DST profile, interpretation, Day 3 / DST profile, interpretation, Day 5 / DST profile, interpretation, Day 14: S, susceptible; I, intermediate; R, resistant. Here is the method:
(§1) Drug susceptibility testing (DST) was performed according to the Clinical and Laboratory Standards Institute (CLSI) guidelines M24-A2 [42] using the broth microdilution method to determine the minimum inhibitory concentration (MIC). […] Colonies were grown at an adjusted cell density to a 0.5 McFarland standard and further diluted to 5×10^5 CFU/ml. […] These were then incubated at 37°C for 3, 5 and 14 days. The MIC was defined as the concentration in which no visible growth was observed. The results were interpreted according to the guidelines of CLSI. Inducible resistance was inferred by changes in MIC values from being susceptible at day 3 to resistant at day 14.

Assay [2] relates to M. abscessus clinical isolate MAB01. The description is as above. The arrangement: key to DST profile, interpretation, Day 3 / DST profile, interpretation, Day 5 / DST profile, interpretation, Day 14: S, susceptible; I, intermediate; R, resistant. It is filed as cell-based, M. abscessus subsp. abscessus. Here is the method: as §1
The subject of assay [3] is M. abscessus clinical isolate MAB08. The description is as above. Type of assay: cell-based, M. abscessus subsp. abscessus. Set-up: key to DST profile, interpretation, Day 3 / DST profile, interpretation, Day 5 / DST profile, interpretation, Day 14: S, susceptible; I, intermediate; R, resistant. The method, then:
as §1

Assay [4] has as its system M. abscessus clinical isolate MAB09. Described as above. It is filed as cell-based, M. abscessus subsp. abscessus. The arrangement: key to DST profile, interpretation, Day 3 / DST profile, interpretation, Day 5 / DST profile, interpretation, Day 14: S, susceptible; I, intermediate; R, resistant. The method, then: as §1
For assay [5], the system named is M. abscessus clinical isolate MAB03. The description is as above. Type of assay: cell-based, M. abscessus subsp. abscessus. Set-up: key to DST profile, interpretation, Day 3 / DST profile, interpretation, Day 5 / DST profile, interpretation, Day 14: S, susceptible; I, intermediate; R, resistant. The method, then:
as §1

Assay [6] deals with M. abscessus clinical isolate MAB06. The assay is described as above. It is filed as cell-based, M. abscessus subsp. abscessus. Set-up: key to DST profile, interpretation, Day 3 / DST profile, interpretation, Day 5 / DST profile, interpretation, Day 14: S, susceptible; I, intermediate; R, resistant. Here is the method: as §1
The test system of assay [7] is M. abscessus clinical isolate MAB07. The assay is described as above. Type of assay: cell-based, M. abscessus subsp. abscessus. Set-up: key to DST profile, interpretation, Day 3 / DST profile, interpretation, Day 5 / DST profile, interpretation, Day 14: S, susceptible; I, intermediate; R, resistant. The method, then: as §1
Assay [8] has as its system M. abscessus clinical isolate MAB11. Described as above. It is filed as cell-based, M. abscessus subsp. abscessus. The arrangement: key to DST profile, interpretation, Day 3 / DST profile, interpretation, Day 5 / DST profile, interpretation, Day 14: S, susceptible; I, intermediate; R, resistant. Here is the method:
as §1

In assay [9] the test system is M. abscessus clinical isolate MAB05. The assay is described as above. Type of assay: cell-based, M. abscessus subsp. abscessus. Set-up: key to DST profile, interpretation, Day 3 / DST profile, interpretation, Day 5 / DST profile, interpretation, Day 14: S, susceptible; I, intermediate; R, resistant. Here is the method: as §1
Assay [10] deals with M. abscessus clinical isolate MAB10. Described as above. Type of assay: cell-based, M. abscessus subsp. abscessus. Set-up: key to DST profile, interpretation, Day 3 / DST profile, interpretation, Day 5 / DST profile, interpretation, Day 14: S, susceptible; I, intermediate; R, resistant. Here is the method: as §1
Assay [11] deals with M. abscessus clinical isolate MAB04. The description is as above. It is filed as cell-based, M. abscessus subsp. abscessus. Set-up: key to DST profile, interpretation, Day 3 / DST profile, interpretation, Day 5 / DST profile, interpretation, Day 14: S, susceptible; I, intermediate; R, resistant. Here is the method: as §1
In assay [12] the test system is M. abscessus clinical isolate MAB13. The description is as above. Type of assay: cell-based, M. abscessus subsp. massiliense. Set-up: key to DST profile, interpretation, Day 3 / DST profile, interpretation, Day 5 / DST profile, interpretation, Day 14: S, susceptible; I, intermediate; R, resistant. The method, then:
as §1

The subject of assay [13] is M. abscessus clinical isolate MAB12. The assay is described as above. It is filed as cell-based, M. abscessus subsp. massiliense. The arrangement: key to DST profile, interpretation, Day 3 / DST profile, interpretation, Day 5 / DST profile, interpretation, Day 14: S, susceptible; I, intermediate; R, resistant. The method, then: as §1
Assay [14] concerns M. abscessus clinical isolate MAB16. Described as above. Type of assay: cell-based, M. abscessus subsp. massiliense. Set-up: key to DST profile, interpretation, Day 3 / DST profile, interpretation, Day 5 / DST profile, interpretation, Day 14: S, susceptible; I, intermediate; R, resistant. Here is the method:
as §1

In assay [15] the test system is M. abscessus clinical isolate MAB14. Described as above. Type of assay: cell-based, M. abscessus subsp. massiliense. Set-up: key to DST profile, interpretation, Day 3 / DST profile, interpretation, Day 5 / DST profile, interpretation, Day 14: S, susceptible; I, intermediate; R, resistant. The method, then: as §1
Assay [16] concerns M. abscessus clinical isolate MAB15. The description is as above. Set-up: key to DST profile, interpretation, Day 3 / DST profile, interpretation, Day 5 / DST profile, interpretation, Day 14: S, susceptible; I, intermediate; R, resistant. It is filed as cell-based, M. abscessus subsp. massiliense. The method, then: as §1
The test system of the next assay is Mab ATCC19977 strain. It is filed as cell-based, Mycobacterium abscessus. The method, then:
Briefly, serial dilutions of the AMPs were prepared with potassium phosphate buffer (PPB) from the concentration range of 3.125 to 400 μg/ml and then 50 μl of each dilution were added to each 96-well plate. Colonies of the isolate were suspended and then further diluted in Mueller-Hinton broth to obtain a final concentration of 1×10^3 CFU/ml (optimized according to the available AMP stock concentration). Fifty microliters of this inoculum were added to each well of the plates. The plates were incubated for 3 days at 37°C. Plain media and bacterial suspensions without AMPs were used as negative and positive controls. The MIC values were read and recorded. All assays were performed in duplicate and two independent experiments.

Assay in assay [17]: not given
The source holds these as a separate data set.

Where [18] appears, read: Mycobacteroides abscessus, 120 h, day 5, read-out: DST profile, MIC value, Day 5.

In brackets after ≈: the same amount, converted by molar mass. Where a SMILES comes first, the peptide text is derived from it.

In general, MIC refers to the smallest concentration in the dilution series that meets the test's criterion for growth inhibition. Turning to `NCC[C@H](O)C(=O)N[C@@H]1C[C@H](N)[C@@H](O[C@H]2O[C@H](CN)[C@@H](O)[C@H](O)[C@H]2O)[C@H](O)[C@H]1O[C@H]1O[C@H](CO)[C@@H](O)[C@H](N)[C@H]1O` [AMK, Amikacin], the MIC came out at 8 µg/mL (≈ 13.7 µM) in assay [1] (setting [18]); 64 µg/mL (≈ 109 µM) in assay [2] (setting [18]); 8 µg/mL (≈ 13.7 µM) in assay [3] (setting [18]); 8 µg/mL (≈ 13.7 µM) in [4] (setting [18]); 4 µg/mL (≈ 6.83 µM) in assay [5] (setting [18]); 8 µg/mL (≈ 13.7 µM) in [6] (setting [18]). Besides, the MIC in assay [7] (setting [18]) is 8 µg/mL (≈ 13.7 µM); in assay [8] (setting [18]), 16 µg/mL (≈ 27.3 µM); in assay [9] (setting [18]), 32 µg/mL (≈ 54.6 µM); in [10] (setting [18]) it was 64 µg/mL (≈ 109 µM); in [11] (setting [18]) it was 8 µg/mL (≈ 13.7 µM); in [12] (setting [18]), 8 µg/mL (≈ 13.7 µM). The MIC in [13] (setting [18]) was 8 µg/mL (≈ 13.7 µM); in [14] (setting [18]) it was 32 µg/mL (≈ 54.6 µM); in [15] (setting [18]), 64 µg/mL (≈ 109 µM); in [16] (setting [18]) it was 8 µg/mL (≈ 13.7 µM). Besides, the “DST profile, interpretation, Day 5” value in assay [1] (day 5, CLSI interpretation) is reported as “S”; in assay [2] (day 5, CLSI interpretation) it was “R”; in [3] (day 5, CLSI interpretation), “S”; in assay [4] (day 5, CLSI interpretation), “S”; in [5] (day 5, CLSI interpretation), “S”; in [6] (day 5, CLSI interpretation), “S”. Besides, the “DST profile, interpretation, Day 5” value is reported as “S” in assay [7] (day 5, CLSI interpretation); “S” in assay [8] (day 5, CLSI interpretation); “I” in assay [9] (day 5, CLSI interpretation); “R” in assay [10] (day 5, CLSI interpretation); “S” in assay [11] (day 5, CLSI interpretation); “S” in assay [12] (day 5, CLSI interpretation). Besides, the “DST profile, interpretation, Day 5” value in assay [13] (day 5, CLSI interpretation) is reported as “S”; in assay [14] (day 5, CLSI interpretation), “I”; in assay [15] (day 5, CLSI interpretation), “R”; in assay [16] (day 5, CLSI interpretation), “S”.
In turn, `CC[C@H](C)[C@H](NC(=O)[C@H](CCCCN)NC(=O)[C@H](CCCNC(=N)N)NC(=O)CNC(=O)[C@H](CC(C)C)NC(=O)[C@H](CO)NC(=O)[C@H](CCCNC(=N)N)NC(=O)[C@H](CC(C)C)NC(=O)CNC(=O)CN)C(=O)N[C@@H](CC(C)C)C(=O)N[C@@H](CCCNC(=N)N)C(=O)N[C@@H](C)C(=O)N[C@@H](Cc1c[nH]c2ccccc12)C(=O)N[C@@H](CCCCN)C(=O)N[C@@H](CCCCN)C(=O)O` [S62] (H-GGLRSLGRKILRAWKK-OH) showed an MIC after 3 days, MAB01 and MAB03 below 50 µg/mL. The compound also yielded an MIC values in the assay on Mab ATCC19977 strain of 200 µg/mL (≈ 109 µM). This compound registered an MIC within 24 h, majority of isolates (10/16) in [17] below 50 µg/mL.
